Data published in article PMC5834492, “Antimycobacterial drug discovery using Mycobacteria-infected amoebae identifies anti-infectives and new molecular targets” (Scientific Reports, 2018).
Like-named read-outs stand apart in the source and are kept apart here.

Legend:
[1] = tested on: M. marinum in A. castellanii; format: cell-based, Mycobacterium marinum; details: for A. castellanii / M. marinum normalised growth, control=1.00, mean / Hits A. castellanii/M. marinum assay True/False: 10 µM
[2] = tested on: M. marinum in BV2 microglial cells; format: cell-based, Mycobacterium marinum; details: for BV2 / M. marinum normalised growth, control=1.00, mean / hit in BV2/M. marinum assay True/False: 10 µM
D. discoideum GFP-ABD = details: 10 µM
M. marinum luxCDABE = format: cell-based, Mycobacterium marinum; details: for M. marinum luxCDABE normalised growth, control=1.00, mean / M. marinum luxCDABE normalised growth, control = 1.00, mean: 10 µM
M. marinum GFP = format: cell-based, Mycobacterium marinum; details: 10 µM; antibiotic assay
Mtb H37Rv in THP-1 = tested on: Mtb H37Rv in THP-1; parameters: method as in Sorrentino et al, 2015; details: ref Sorrentino et al, 2015, cited from earlier work; for Extracellular MIC90/ Inracellular MIC90: ratio
Mtb H37Rv = tested on: Mtb H37Rv; parameters: method as in Sorrentino et al, 2015; details: ref Sorrentino et al, 2015; cited from earlier work
[3] = THP1 / Mtb H37Rv infection assay

Row | Compound | A. castellanii / M. marinum normalised growth, control=1.00, mean [1] | IC50 [2] [µM] | BV2 / M. marinum normalised growth, control=1.00, mean [2] | D. discoideum GFP-ABD normalised growth, control=1.00, mean (D. discoideum GFP-ABD) | M. marinum luxCDABE normalised growth, control=1.00, mean (M. marinum luxCDABE) | M. marinum GFP normalised growth, control=1.00, mean (M. marinum GFP) | Intracelullar MIC90 in THP-1 (Mtb H37Rv in THP-1; [3]) [µM] | Extracellular MIC90/ Inracellular MIC90 (Mtb H37Rv in THP-1) | Extracellular MIC90 (Mtb H37Rv) [µM] | Antibiotic assays: M. marinum luxCDABE (M. marinum luxCDABE) | Hits A. castellanii/M. marinum assay True/False [1] | hit in BV2/M. marinum assay True/False [2] | M. marinum luxCDABE normalised growth, control = 1.00, mean (M. marinum luxCDABE) | Intracelullar MIC90 in THP-1 (Mtb H37Rv in THP-1; Mtb H37Rv-infected THP1 cells) [µM] | D. discoideum GFP-ABD normalised growth, control = 1.00, mean (D. discoideum GFP-ABD) | Intracellular infection assays: A. castellanii / M. marinum [1] | Intracellular infection assays: BV2 / M. marinum [2]
1 | Cc1cccc(Cn2ccc(NC(=O)c3ccc4c(c3)OCO4)n2)c1 [GSK798463A] | 0.57 | 5.01 | 0.80 | 0.66 | 0.00 | 0.0323 | 5.55 | 0.67 | 3.7 |  |  |  |  |  |  |  | 
2 | O=C(COc1cccc(F)c1)Nc1nc(-c2ccccn2)cs1 [GSK920684A] |  |  |  |  |  |  | 50 |  |  | 0.00 |  |  |  |  |  |  | 
3 | O=C(C=Cc1cccs1)N1CCN(Cc2ccc(Br)s2)CC1 [GSK1744926A] | 0.74 | 4.18 | 0.70 | 0.50 | 0.00 | 0.13 | 1.85 | 1.03 | 1.9 |  |  |  |  |  |  |  | 
4 | Cc1ccc2nc(C(F)(F)F)c(C(=O)NCc3cccs3)n2c1 [GSK1829729A] | 0.52 | 0.08 | 0.48 | 0.86 | 0.00 | 0.0432 | 0.61 | 1.47 | 0.9 |  | FALSE | TRUE | 0,00 | 0.61 |  |  | 
5 | O=C(NCc1ccc2c(c1)OCO2)c1c(C(F)(F)F)nc2ccccn12 [GSK1829671A] | 0.66 | 7.47 | 0.49 | 1.21 | 0.00 | 0.06 | 16.65 | 0.2 | 3.3 |  | FALSE | TRUE | 0,00 | 16.65 | 1,21 |  | 
6 | Nc1ccccc1Nc1ccc2c(c1)OCO2 [SB-435634] | 1.04 | 11.4 | 0.63 | 1.14 | 1.00 | 1.08 | 5.55 | 0.32 | 1.8 |  |  |  |  |  |  |  | 
7 | Cc1ccc2nc(C(F)(F)F)c(C(=O)NCc3cccc(OC(C)C)c3)n2c1 [GSK1829733A] | 0.68 | 3.35 | 0.69 | 1.05 | 0.00 | 0.09 | 1.85 | 1.13 | 2.1 |  |  |  |  |  |  |  | 
8 | COc1cc(CN2CCC3(C=Cc4ccccc43)CC2)cc2c1OCO2 [SB-354364] | 1.02 | 16.8 | 0.80 | 0.86 | 1.00 | 0.83 |  |  |  |  |  |  |  |  |  |  | 
9 | CCN(Cc1ccc2c(c1)OCO2)C(=O)CSc1nc(NC)c2ccccc2n1 [GSK1859936A] | 1.03 | 4.14 | 0.63 | 1.00 | 0.07 | 0.54 | 16.65 | 0.17 | 2.8 |  |  |  |  |  |  |  | 
10 | Br.Cc1ccccc1OCCCON1C(=N)N=C(N)NC1(C)C [BRL-8903SA] | 2.27 | 4.27 | 0.52 | 0.88 | 0.00 | 0.06 | 16.65 | 0.23 | 3.8 |  |  |  |  |  |  |  | 
11 | CSc1ccc(-c2nnc(NC(=O)c3ccc(Cl)s3)o2)cc1 [GSK1650514A] | 1.31 | 19.7 | 0.90 | 1.16 | 0.00 | 0.91 | >50 |  |  |  |  |  |  |  |  |  | 
12 | N#Cc1ccc2c(c1)CCN(CCCSc1ccnc3cc(C(F)(F)F)ccc13)CC2 [GSK254610A] | 0.87 |  | 0.50 | 0.88 | 0.00 | 0.05 |  |  |  |  | FALSE | TRUE | 0,00 |  |  |  | 
13 | Cc1ccc2[nH]c(C3CCCNC3)c(-c3ccncc3)c2c1 (stereo not shown) [GSK1905227A] | 1.23 | 9.76 | 0.77 | 0.85 | 0.08 | 0.55 |  |  |  |  |  |  |  |  |  |  | 
14 | COc1ccc2sc(Nc3nc(-c4ccccn4)cs3)nc2c1 [GSK690382A] | 1.07 | 11.9 | 0.85 | 1.25 | 0.00 | 0.98 |  |  |  |  |  |  |  |  |  |  | 
15 | Clc1ccc(Nc2nc(-c3ccccn3)cs2)nc1 [GSK445886A] | 1.31 | 1.75 | 0.84 |  | 0.075 | 0.31 | >50 |  |  |  |  |  |  |  |  |  | 
16 | O=C(O)C(F)(F)F.c1ccc(C[C@H]2CN(c3nccc(Oc4ccc(-n5ccnc5)cc4)n3)CCN2)cc1 [GSK1519001A] | 1.14 |  | 0.74 | 0.76 | 0.18 | 0.97 |  |  |  |  |  |  |  |  |  |  | 
17 | CSc1ccc(C(=O)Nc2nc(-c3ccccn3)cs2)cc1 [GSK921295A] |  |  |  |  |  |  | 50 | 0.17 | 8.7 | 0.00 |  |  |  |  |  | 1.37 | 1.23
